Experiments:
Assay in all cases: area over the GR curve, 72 h; higher = more effect;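 also: Dye Drop or Deep Dye Drop imaging of viable cells in 384-well plates (Hoechst nuclei, LIVE/DEAD dye), nine half-log doses, GR normalized to DMSO controls and time-zero plates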
[1] = test system: HCC1937
[2] = test system: CAL851
[3] = test system: HCC1143
[4] = test system: PDX1328
[5] = test system: EVSAT
[6] = test system: EFM19
[7] = test system: BT549
[8] = test system: SUM190PT
[9] = test system: 184A1
[10] = test system: MDAMB436
[11] = test system: MDAMB468
[12] = test system: SUM159

Compound: COc1ccc2c(c1)[C@]1(C[C@H]1c1ccc3c(/C=C/c4ccc(CN5C[C@@H](C)O[C@@H](C)C5)cc4)n[nH]c3c1)C(=O)N2
- area over the GR curve [1]: 0.655 GR
- area over the GR curve [2]: 0.761 GR
- area over the GR curve [3]: 0.534 GR
- area over the GR curve [4]: 0.553 GR
- area over the GR curve [5]: 0.531 GR
- area over the GR curve [6]: 0.397 GR
- area over the GR curve [7]: 0.889 GR
- area over the GR curve [8]: 0.751 GR
- area over the GR curve [9]: 0.668 GR
- area over the GR curve [10]: 0.768 GR
- area over the GR curve [11]: 0.838 GR
- area over the GR curve [12]: 0.629 GR

Compound: COc1cccc(OCCCN)c1-c1cc(Nc2cnc(C#N)cn2)n[nH]1
- area over the GR curve [1]: 0.55 GR
- area over the GR curve [2]: 0.608 GR
- area over the GR curve [3]: 0.619 GR
- area over the GR curve [4]: 0.442 GR
- area over the GR curve [5]: 0.0022 GR
- area over the GR curve [6]: 0.041 GR
- area over the GR curve [7]: 1.4 GR
- area over the GR curve [8]: 0.598 GR
- area over the GR curve [9]: 0.0009 GR
- area over the GR curve [10]: 0.545 GR
- area over the GR curve [11]: 0.227 GR
- area over the GR curve [12]: 0.533 GR

Compound: CC(=O)Nc1cccc(-n2c(=O)n(C3CC3)c(=O)c3c(Nc4ccc(I)cc4F)n(C)c(=O)c(C)c32)c1 (max 1 µM)
- area over the GR curve [1]: 0.138 GR
- area over the GR curve [2]: 0.41 GR
- area over the GR curve [3]: 0.538 GR
- area over the GR curve [4]: 0.166 GR
- area over the GR curve [5]: 0.0263 GR
- area over the GR curve [6]: -0.1 GR
- area over the GR curve [7]: 0.129 GR
- area over the GR curve [8]: 0.0746 GR
- area over the GR curve [9]: 0.659 GR
- area over the GR curve [10]: 0.182 GR
- area over the GR curve [11]: 0.213 GR
- area over the GR curve [12]: 0.347 GR

Compound: CCc1cnn2c(NCc3ccc[n+]([O-])c3)cc(N3CCCC[C@H]3CCO)nc12 (max 1 µM)
- area over the GR curve [1]: 0.475 GR
- area over the GR curve [2]: 0.686 GR
- area over the GR curve [3]: 0.545 GR
- area over the GR curve [4]: 0.656 GR
- area over the GR curve [5]: 0.0948 GR
- area over the GR curve [6]: 0.459 GR
- area over the GR curve [7]: 0.591 GR
- area over the GR curve [8]: 0.654 GR
- area over the GR curve [9]: 0.636 GR
- area over the GR curve [10]: 0.483 GR
- area over the GR curve [11]: 0.568 GR
- area over the GR curve [12]: 0.465 GR

Compound: CC(=O)c1c(C)c2cnc(Nc3ccc(N4CCNCC4)cn3)nc2n(C2CCCC2)c1=O (max 3.162 µM)
- area over the GR curve [1]: -0.0629 GR
- area over the GR curve [2]: -0.0843 GR
- area over the GR curve [3]: 0.255 GR
- area over the GR curve [4]: 0.252 GR
- area over the GR curve [5]: 0.141 GR
- area over the GR curve [6]: 0.179 GR
- area over the GR curve [7]: -0.0495 GR
- area over the GR curve [8]: 0.319 GR
- area over the GR curve [9]: 0.375 GR
- area over the GR curve [10]: -0.0424 GR
- area over the GR curve [11]: -0.0231 GR
- area over the GR curve [12]: 0.186 GR

Compound: CCc1cncnc1N1CCN(Cc2nc3ccc(C(F)(F)F)cc3[nH]2)CC1 (max 10 µM)
- area over the GR curve [1]: 0.039 GR
- area over the GR curve [2]: -0.0315 GR
- area over the GR curve [3]: 0.0639 GR
- area over the GR curve [4]: 0.0319 GR
- area over the GR curve [5]: 0.0249 GR
- area over the GR curve [6]: -0.0563 GR
- area over the GR curve [7]: -0.0132 GR
- area over the GR curve [8]: 0.0049 GR
- area over the GR curve [9]: -0.0012 GR
- area over the GR curve [10]: 0.0903 GR
- area over the GR curve [11]: 0.118 GR
- area over the GR curve [12]: 0.0106 GR

Compound: CCCCOc1c(C(=O)c2c(F)cc(C)cc2F)c[nH]c2nncc1-2 (max 10 µM)
- area over the GR curve [1]: 0.917 GR
- area over the GR curve [2]: 0.672 GR
- area over the GR curve [3]: 0.837 GR
- area over the GR curve [4]: 0.142 GR
- area over the GR curve [5]: 0.322 GR
- area over the GR curve [6]: 0.497 GR
- area over the GR curve [7]: 0.94 GR
- area over the GR curve [8]: 0.715 GR
- area over the GR curve [9]: 0.954 GR
- area over the GR curve [10]: 0.355 GR
- area over the GR curve [11]: 0.516 GR
- area over the GR curve [12]: 0.466 GR

Compound: CCN1CCN(Cc2ccc(Nc3ncc(F)c(-c4cc(F)c5nc(C)n(C(C)C)c5c4)n3)nc2)CC1 (max 10 µM)
- area over the GR curve [1]: 0.102 GR
- area over the GR curve [2]: 0.228 GR
- area over the GR curve [3]: 0.541 GR
- area over the GR curve [4]: 0.676 GR
- area over the GR curve [5]: 0.324 GR
- area over the GR curve [6]: 0.478 GR
- area over the GR curve [7]: 0.127 GR
- area over the GR curve [8]: 0.66 GR
- area over the GR curve [9]: 0.635 GR
- area over the GR curve [10]: 0.187 GR
- area over the GR curve [11]: 0.176 GR
- area over the GR curve [12]: 0.372 GR

Compound: CNc1nc(-c2ccc3c(N)n[nH]c3c2)cc(N2C[C@@H](C(=O)NC3CCCCC3)CC[C@H]2C)n1 (max 10 µM)
- area over the GR curve [1]: 0.146 GR
- area over the GR curve [2]: 0.201 GR
- area over the GR curve [3]: 0.0906 GR
- area over the GR curve [4]: 0.136 GR
- area over the GR curve [5]: 0.257 GR
- area over the GR curve [6]: 0.293 GR
- area over the GR curve [7]: 0.0789 GR
- area over the GR curve [8]: 0.292 GR
- area over the GR curve [9]: 0.135 GR
- area over the GR curve [10]: 0.0007 GR
- area over the GR curve [11]: 0.0821 GR
- area over the GR curve [12]: 0.106 GR

Compound: CO[C@@H](C)Cn1c(=O)n(C)c2cnc3ccc(-c4cncc(C(C)(C)O)c4)cc3c21 (max 10 µM)
- area over the GR curve [1]: 0.485 GR
- area over the GR curve [2]: 0.771 GR
- area over the GR curve [3]: 0.446 GR
- area over the GR curve [4]: 0.72 GR
- area over the GR curve [5]: 0.795 GR
- area over the GR curve [6]: 0.813 GR
- area over the GR curve [7]: 0.765 GR
- area over the GR curve [8]: 1.16 GR
- area over the GR curve [9]: 0.761 GR
- area over the GR curve [10]: 0.372 GR
- area over the GR curve [11]: 0.669 GR
- area over the GR curve [12]: 0.727 GR

Compound: Cc1nn(C)c(COc2ccc(N3CCN(S(=O)(=O)N(C)C)CC3)cc2)c1-c1cccc2c(CCCOc3cccc4ccccc34)c(C(=O)O)n(CCN3CCOCC3)c12 (max 10 µM)
- area over the GR curve [1]: 0.006 GR
- area over the GR curve [2]: 0.0108 GR
- area over the GR curve [3]: 0.064 GR
- area over the GR curve [4]: -0.0317 GR
- area over the GR curve [5]: 0.0097 GR
- area over the GR curve [6]: -0.0581 GR
- area over the GR curve [7]: 0.0083 GR
- area over the GR curve [8]: -0.063 GR
- area over the GR curve [9]: 0.0952 GR
- area over the GR curve [10]: 0.014 GR
- area over the GR curve [11]: 0.0206 GR
- area over the GR curve [12]: -0.0068 GR

Compound: CN(C)CC[C@H](CSc1ccccc1)Nc1ccc(S(=O)(=O)NC(=O)c2ccc(N3CCN(Cc4ccccc4-c4ccc(Cl)cc4)CC3)cc2)cc1[N+](=O)[O-] [ABT-737] (max 10 µM)
- area over the GR curve [1]: 0.0829 GR
- area over the GR curve [2]: -0.0516 GR
- area over the GR curve [3]: 0.102 GR
- area over the GR curve [4]: 0.304 GR
- area over the GR curve [5]: 0.0258 GR
- area over the GR curve [6]: 0.111 GR
- area over the GR curve [7]: -0.0258 GR
- area over the GR curve [8]: 0.492 GR
- area over the GR curve [9]: 0.153 GR
- area over the GR curve [10]: -0.0008 GR
- area over the GR curve [11]: 0.086 GR
- area over the GR curve [12]: 0.0034 GR

Compound: C=CCn1c(=O)c2cnc(Nc3ccc(N4CCN(C)CC4)cc3)nc2n1-c1cccc(C(C)(C)O)n1 [AZD1775] (max 10 µM)
- area over the GR curve [1]: 0.707 GR
- area over the GR curve [2]: 0.491 GR
- area over the GR curve [3]: 0.355 GR
- area over the GR curve [4]: 0.806 GR
- area over the GR curve [5]: 0.228 GR
- area over the GR curve [6]: 0.23 GR
- area over the GR curve [7]: 0.446 GR
- area over the GR curve [8]: 0.615 GR
- area over the GR curve [9]: 0.366 GR
- area over the GR curve [10]: 0.497 GR
- area over the GR curve [11]: 0.47 GR
- area over the GR curve [12]: 0.253 GR

Compound: CNC(=O)c1cccc(-c2ccc3c(N4CCOC[C@@H]4C)nc(N4CCOC[C@@H]4C)nc3n2)c1 [AZD2014] (max 10 µM)
- area over the GR curve [1]: 0.52 GR
- area over the GR curve [2]: 0.637 GR
- area over the GR curve [3]: 0.422 GR
- area over the GR curve [4]: 0.706 GR
- area over the GR curve [5]: 0.75 GR
- area over the GR curve [6]: 0.829 GR
- area over the GR curve [7]: 0.491 GR
- area over the GR curve [8]: 0.844 GR
- area over the GR curve [9]: 0.729 GR
- area over the GR curve [10]: 0.363 GR
- area over the GR curve [11]: 0.401 GR
- area over the GR curve [12]: 0.481 GR

Compound: NC1(C(=O)N[C@@H](CCO)c2ccc(Cl)cc2)CCN(c2nc[nH]c3nccc2-3)CC1 [AZD5363] (max 10 µM)
- area over the GR curve [1]: 0.353 GR
- area over the GR curve [2]: 0.106 GR
- area over the GR curve [3]: 0.0834 GR
- area over the GR curve [4]: 0.0959 GR
- area over the GR curve [5]: 0.728 GR
- area over the GR curve [6]: 0.304 GR
- area over the GR curve [7]: 0.211 GR
- area over the GR curve [8]: 0.272 GR
- area over the GR curve [9]: 0.122 GR
- area over the GR curve [10]: 0.104 GR
- area over the GR curve [11]: 0.135 GR
- area over the GR curve [12]: 0.177 GR

Reference: the supplement of paper PMC9663587
